Results on four compounds are retold here after paper PMC10303900, “Discovery of a New Chalcone-Trimethoxycinnamide Hybrid with Antimitotic Effect: Design, Synthesis, and Structure—Activity Relationship Studies” (Pharmaceuticals, 2023).

In series [1] the test system is MCF-7. The conditions noted are these: 48 h, cited from earlier work.
Details of series [2]: method as in PMID 34885726. The conditions noted are these: used at 2×GI50; ref [17]; cited from earlier work.
In a further series the test system is HFF-1 and HPAEpiC cells. Also noted: method as in PMID 34170069, PMID 34885726. The conditions noted are these: fibroblasts HFF-1 and HPAEpiC; ref [12],[17]; cited from earlier work.
For series [3], the system named is HCT116 (HCT116 p53+/+). To be noted: 48 h, cited from earlier work.
The subject of series [4] is A375-C5. Also noted: method as in Novais et al. [17]. The conditions noted are these: 48 h; ref Novais et al. [17]; cited from earlier work.
The test system of series [5] is HPAEpiC. Also noted: method as in Novais et al. [17]. To be noted: 48 h, non-tumor cells; ref Novais et al. [17]; cited from earlier work.
Series [6] relates to A375-C5. As to the kind of experiment: Sulforhodamine B (SRB) growth inhibition assay, melanoma cells. Format: cell-based. The conditions noted are these: Homo sapiens, 48 h. On the procedure: (§1) A sulforhodamine B (SRB) assay was performed to evaluate the in vitro growth inhibitory activity of all synthesized hybrids, as well as intermediates in the human tumor cell lines of melanoma (A375-C5), breast adenocarcinoma (MCF-7), and colorectal carcinoma (HCT116), as well as on the non-tumor Human Pulmonary Alveolar Epithelial cell line (HPAEpiC). The concentration inducing 50% cell growth inhibition (GI50), was calculated. […] The overall results prompt us to further investigate the mechanism behind the cytotoxic activities of compounds 6, 7, and 13 in colorectal tumor cells. Moreover, in silico studies were performed, aiming to screen for drug-likeness.
(§2) A375-C5 (melanoma) and MCF-7 (breast adenocarcinoma) cell lines were obtained from the European Collection of Cell Culture, UK, and were grown in RPMI-1640 medium (Roswell Park Memorial Institute, Biochrom, Cambridge, UK) with 5% inactivated FBS (fetal bovine serum, Biochrom). HCT-116 (colon adenocarcinoma) cells were grown in DMEM medium (Dulbecco’s Modified Eagle’s, Biochrom) with 5% inactivated FBS. The non-tumor human pulmonary alveolar epithelial cells (HPAEpiC) were obtained from ScienCell Research Laboratories and grown in DMEM medium supplemented with 10% FBS and 1% non-essential amino acids (Sigma-Aldrich Co., Saint Louis, MO, USA). All cell lines were maintained in a humidified incubator (Hera Cell, Heraeus, Hanau, Germany) at 37 °C and with 5% CO2, and cell viability was regularly monitored using the exclusion trypan blue dye.
(§3) A total of 5.0 × 10^4 A375-C5, MCF-7, and HCT-116 cells, or 6.0 × 10^4 HPAEpiC cells were seeded in 96-well plates and incubated at 37 °C and 5% CO2 to allow for cell attachment. After 24 h, cells were treated with two-fold serial dilutions of test compounds (0–150 µM), or with DMSO as the compound solvent. In parallel, cells in a time-zero (T0) plate, without treatment, were fixed with 50% (m/v) trichloroacetic acid (TCA, Merck Millipore, Darmstadt, Germany), for 1 h at 4 °C, and then washed with distilled water and left to dry. Forty-eight hours after compound treatment, cells were fixed with 50% TCA and stained with SRB (Sigma-Aldrich Co., Ltd., Gillingham, UK) for 30 min at room temperature, followed by 5 rounds of washing with 1% (v/v) acetic acid (Merck Milli-pore, Darmstadt, Germany). SRB–protein complexes were then solubilized with […] Tris buffer (Sigma-Aldrich Co., Ltd., Gillingham, UK) for 30 min, and the absorbance was measured at 515 nm in a microplate reader (Biotek Synergy 2, BioTek Instruments, Inc., Winooski, VT, USA). A dose-response curve was obtained for each cell line, and the concentration that caused 50% cell growth inhibition (GI50) was calculated.

For series [7], the target named is T1, p53–MDM2 interaction (Homo sapiens, UniProt Q00987).
T1 construct: expressed in transfected cells; host or cells: Saccharomyces cerevisiae strain CG379
Details: method as in doi:10.1016/j.arabjc.2016.04.015. To be noted: ref [16]; cited from earlier work.

The subject of a further series is HCT116 p53−/−. As to the kind of experiment: SRB growth inhibition assay, p53 knocked-out colorectal cells. Format: cell-based, human. To be noted: for GI50: Homo sapiens, HCT-116, Table 2, 48 h. As to the method:
as §3

Series [8] concerns HPAEpiC. Kind of series: SRB growth inhibition assay, non-tumor pulmonary alveolar epithelial cells. To be noted: Homo sapiens, Epithelial cell, 48 h. Format: cell-based. On the procedure: as §1, §2, §3
The target of series [9] is T1, p53–MDM2 interaction. As to the kind of experiment: Yeast targeted screening assay of p53–MDM2 interaction. The conditions noted are these: 10 μM, yeast cell-based assay, data not shown. As to the method: However, since CM-M345 (1) has been previously reported as a p53-MDM2 inhibitor by our research group, the effect of 10 μM of compounds 6, 7, and 13 on the p53–MDM2 interaction was analyzed using yeast cell-based assays.
Saccharomyces cerevisiae (strain CG379) expressing human wt p53 alone and combined with human MDM2 were obtained in previous works. For the expression of human proteins (routinely grown in minimal selective medium), cells were diluted to 0.05 OD600 in selective induction medium containing 2% (w/w) galactose, 1% (w/w) raffinose, 0.7% (w/w) yeast nitrogen base without amino acids from Difco (Quilaban, Sintra, Portugal), and all the amino acids required for yeast growth ([…]) except leucine and tryptophan. Yeast cells were incubated at 30 °C under continuous orbital shaking (200 rpm) with 10 µM compounds or 0.1% DMSO only, for approximately 42 h (time required by the control yeast, co-transformed with the empty vectors and incubated with DMSO only, to achieve 0.4 OD600). Yeast growth was analyzed by counting the number of colony-forming units (CFU) after 2 days of incubation at 30 °C on Sabouraud Dextrose Agar from Liofilchem (Frilabo, Porto, Portugal).

For series [10], the system named is HCT116 cells. Kind of series: Mitotic arrest / mitotic index by phase-contrast microscopy. Format: cell-based, human. The conditions noted are these: HCT116, 24 h, phase contrast microscopy. On the procedure:
Disruption of cell cycle progression is considered one of the most common cytotoxic mechanisms of anticancer drugs. Moreover, the antimitotic effect of BP-M345 (2) has been previously reported. Therefore, compounds 6, 7, and 13 were tested for their capability to induce cell cycle arrest. HCT116 cells were exposed for 24 h to the compounds and then analyzed using phase contrast microscopy for morphological changes. Untreated and dimethyl sulfoxide (DMSO; solvent)-treated cells were used as negative controls. Cell exposure to nocodazole, an antimitotic agent, was used as a positive control. […] We thus calculated the mitotic index (MI), and observed a significant increase in MI in 7-treated cells (22.76 ± 4.30%) compared to the untreated (12.68 ± 1.98%) or DMSO-treated (12.81 ± 1.45%) (Figure 4c).
A total of 1.2 × 10^5 HCT-116 cells were grown in six-well dishes and treated for 24 h with 3.26 µM of compound 7. Cells treated with 1 µM nocodazole were used as a positive control for antimitotic activity. Untreated cells and cells treated with DMSO were included to exclude the cytotoxicity of the compound solvent. Mitotic index, and the percentage of mitotic cells over the total cell population were determined via cell-rounding under phase-contrast microscopy from at least ten random microscope fields.
For phase contrast microscopy images, a Nikon TE 2000-U microscope (Nikon, Amsterdam, The Netherlands) with a 10× objective was used, coupled to a DXM1200F digital camera with Nikon ACT-1 software (Melville, NY, USA). For fluorescence images, an Axio Observer Z.1 SD microscope (Carl Zeiss, Germany) was used, coupled to an AxioCam MR3, with the Plan Apochromatic 63×/NA 1.4 objective. The images were processed using ImageJ, version 1.51.

Series [11] has as its system A375-C5, MCF-7 and HCT116 cell lines. Kind of series: SRB growth inhibition, range over the tumor cell lines of Table 1. To be noted: Homo sapiens; SAR discussion, values of Table 1. Format: cell-based. On the procedure:
Considering the antiproliferative effects on tumor cells of all the studied compounds (Table 1), some SAR considerations may be undertaken (Figure 2). […] Nevertheless, this effect is not observed for the flavone derivatives 15 and 16. […] Additionally, with the screening of the synthetic intermediates, some conclusions can also be inferred (Figure 2).
as §3

Series [12] deals with HCT116 (HCT116 p53+/+). Kind of series: SRB growth inhibition assay, colorectal carcinoma cells. The class given is cell-based. The conditions noted are these: Homo sapiens, HCT-116. On the procedure: as §1, §2, §3
Series [13] concerns MCF-7. Kind of series: SRB growth inhibition assay, breast adenocarcinoma cells. The class given is cell-based. To be noted: Homo sapiens, MCF7, 48 h. As to the method: as §1, §2, §3
The subject of series [14] is HCT116 cells. Kind of series: Apoptosis detection via flow cytometry (Annexin V-FITC/PI). Format: cell-based, human. To be noted: HCT116, 48 h, vs untreated or DMSO. As to the method:
Double labeling with annexin V-FITC and propidium iodide dyes was used to detect cells going through apoptotic events, using a flow cytometer in order to obtain insights into the mechanism by which compounds 6, 7, and 13 generate antiproliferative activity against colorectal carcinoma cells. For that, HCT116 cells were exposed to each compound for 48 h.
To evaluate apoptotic cell death, the “Annexin V-FITC Apoptosis Detection Kit” (eBioscience, Vienna, Austria) was used according to the manufacturer’s instructions. Briefly, 1.2 × 10^5 cells/well were seeded into 6-well plates, and 24 h later, cells were treated with compounds 6, 7, and 13. After 48 h, floating and adherent cells were collected, pelleted via centrifugation (1000 rpm, 5 min), and suspended in binding buffer. Annexin V-FITC was added and incubated for 10 min, protected from light. Cells were washed and resuspended in binding buffer, and 20 μg/mL of propidium iodide (PI) was added. Fluorescence was assessed using the BD Accuri™ C6 Plus flow cytometer (BD Biosciences, Qume Drive, San Jose, CA, USA), and the data were analyzed with the BD Accuri TM C6 Plus software (version 1.0.27.1, San Jose, CA, USA). At least 20,000 events per sample were collected.
(Flow cytometry measures light scatter and fluorescence of single cells or particles in a stream.)

The mark [15] stands for this setting: SRB, 48 h, read-out: GI50 HCT116.
Where [16] appears, read: Table 2, 48 h, read-out: GI50 HCT116 p53+/+.

Like-named read-outs stand apart in the source and are kept apart here.

T1 sequence (Q00987 whole entry): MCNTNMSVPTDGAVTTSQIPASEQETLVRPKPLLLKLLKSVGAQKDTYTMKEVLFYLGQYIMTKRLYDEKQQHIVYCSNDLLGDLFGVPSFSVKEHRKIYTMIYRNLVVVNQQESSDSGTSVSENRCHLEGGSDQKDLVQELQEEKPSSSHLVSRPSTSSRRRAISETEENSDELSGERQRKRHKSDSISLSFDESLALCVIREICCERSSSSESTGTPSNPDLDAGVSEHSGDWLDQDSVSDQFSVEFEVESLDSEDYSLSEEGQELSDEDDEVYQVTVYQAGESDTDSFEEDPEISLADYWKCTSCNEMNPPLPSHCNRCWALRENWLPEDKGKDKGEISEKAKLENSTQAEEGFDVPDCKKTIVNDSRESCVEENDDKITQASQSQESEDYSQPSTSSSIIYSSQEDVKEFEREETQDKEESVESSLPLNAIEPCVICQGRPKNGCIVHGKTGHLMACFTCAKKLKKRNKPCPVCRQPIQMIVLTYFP

For the compound `COc1cc(/C=C2\COC/C(=C\c3cc(OC)c(OC)c(OC)c3)C2=O)cc(OC)c1OC` [BP-M345 (2)], the GI50 with MCF-7 [1] (ref Novais et al. [17]) was 0.45 ± 0.06 µM; with HCT116 (HCT116 p53+/+) [3] (ref Moreira et al. [12]), 0.17 ± 0.01 µM; in the series on A375-C5 [4], 0.24 ± 0.01 µM; with HPAEpiC [5], 1.07 ± 0.16 µM. The “Mitotic index (MI)” value in series [2] is recorded as 29.8 ± 5.6%. In addition, the “Cytotoxicity in non-tumor cell lines” value in the series with HFF-1 and HPAEpiC cells is listed as “low cytotoxicity”.
Turning to `CCCc1c(OC)ccc(C(=O)/C=C/c2cc(OC)c(OC)c(OC)c2)c1O` [CM-M345 (1), reference compound], the GI50 in the series on MCF-7 [1] (ref Pereira et al. [16]) is 2.3 ± 0.1 µM; with A375-C5 [6] it was 5.57 ± 0.06 µM; in the series with HCT116 (HCT116 p53+/+) [3] (ref Pereira et al. [16]), 2.6 ± 0.2 µM; with HPAEpiC [8] it was 6.1 ± 0.66 µM. For the same compound, the “Inhibition of the p53–MDM2 interaction in yeast-based assays” value on p53–MDM2 interaction [7] is listed as “inhibitor of the interaction”. Moreover, the “SI, selective index (GI50 of HCT116 p53−/−/GI50 of HCT116 p53+/+)” value (“SI, selective index” for short) with HCT116 p53−/− stood at 1.31.
Turning to `CCCc1c(OCCNC(=O)OC(C)(C)C)ccc(C(=O)/C=C/c2cc(OC)c(OC)c(OC)c2)c1O` [Compound 6, tert-butyl(E)-(2-(3-hydroxy-2-propyl-4-(3-(3,4,5-trimethoxyphenyl)acryloyl)phenoxy)ethyl)carbamate], the “Effect on the p53–MDM2 interaction (reversal of the negative growth effect of MDM2 on p53)” value at p53–MDM2 interaction [9] is “none of the tested compounds significantly reversed the negative inhibitory growth effect of MDM2 on p53”. The GI50 in the series with A375-C5 [6] was 3.61 ± 1.11 µM; in series [11], 2.81 to 39.8 µM; with HCT116 (HCT116 p53+/+) [12] (setting [15]), 2.81 ± 0.65 µM; in the series on HCT116 (HCT116 p53+/+) [12] (setting [16]), 2.81 ± 0.65 µM; with MCF-7 [13], 39.8 ± 2.11 µM; with HCT116 p53−/−, 1.9 ± 0.3 µM. The GI50 in the series on HPAEpiC [8] was determined as 9.6 ± 0.94 µM. Moreover, the “Accumulation of bright and rounded (mitotic) cells” value in the series with HCT116 cells [10] is “not observed”. In addition, in the series on HCT116 p53−/−, the “SI, selective index” value was found to be 0.68. For the same compound, the “Apoptosis induction (Annexin V-positive cells)” value in the series with HCT116 cells [14] is “induces apoptotic tumor cell death”.
For `CCCc1c(OCC(=O)Nc2cc(OC)c(OC)c(OC)c2)ccc(C(=O)/C=C/c2cc(OC)c(OC)c(OC)c2)c1O` [Compound 13, (E)-2-(3-hydroxy-2-propyl-4-(3-(3,4,5-trimethoxyphenyl)acryloyl)phenoxy)-N-(3,4,5-trimethoxyphenyl)acetamide], the “Effect on the p53–MDM2 interaction (reversal of the negative growth effect of MDM2 on p53)” value on p53–MDM2 interaction [9] is listed as “none of the tested compounds significantly reversed the negative inhibitory growth effect of MDM2 on p53”. In addition, the GI50 in the series on A375-C5 [6] is 9.37 ± 0.9 µM; in the series with HCT116 (HCT116 p53+/+) [12] (setting [15]) it was 2.66 ± 0.87 µM; with HCT116 (HCT116 p53+/+) [12] (setting [16]), 2.66 ± 0.87 µM; with MCF-7 [13], 18.8 ± 3.46 µM; with HCT116 p53−/−, 4.1 ± 0.5 µM; in the series on HPAEpiC [8] it was 10.8 ± 0.23 µM. The “Accumulation of bright and rounded (mitotic) cells” value in the series on HCT116 cells [10] was “not observed”. Besides, in the series with HCT116 p53−/−, the “SI, selective index” value worked out at 1.54. Also, the “Apoptosis induction (Annexin V-positive cells)” value in the series on HCT116 cells [14] is “induces apoptotic tumor cell death”.
